Target: PIK3CG (human) (UniProt P48736)
Test: Enzyme Assay
Settings: not given

IC50 [nM] | Compound
1270 | Nc1ncc(-c2cnc3ccc(-c4ccc(C(=O)N5CCN(Cc6ccccn6)CC5)cc4)nn23)cc1C(F)(F)F

Target: EGFR (UniProt P00533)
Test: EGFR Kinase Inhibition
Settings: not given

IC50 [nM] | Compound
4500 | CN1CCN(CCCCCNc2ncc3cc(-c4c(Cl)cccc4Cl)c(=O)n(C)c3n2)CC1
44000 | C[C@@H](O)[C@@H](NC1=CC(=O)C(N[C@@H](C(=O)O)[C@@H](C)O)=CC1=O)C(=O)O
1000 | Cn1c(=O)c(-c2c(Cl)cccc2Cl)cc2cnc(NCCCCCC(=O)O)nc21
1300 | COc1ccc(Nc2ncc3cc(-c4c(Cl)cccc4Cl)c(=O)n(C)c3n2)cn1
> 100000 | CC(C)[C@@H](NC1=C(CC2CCCC3CCCCC32)C(=O)C(O)=CC1=O)C(=O)O (stereo not given in full)

Target: MAPK14 (human) (UniProt Q16539)
Sequence (Q16539 whole entry, looked up): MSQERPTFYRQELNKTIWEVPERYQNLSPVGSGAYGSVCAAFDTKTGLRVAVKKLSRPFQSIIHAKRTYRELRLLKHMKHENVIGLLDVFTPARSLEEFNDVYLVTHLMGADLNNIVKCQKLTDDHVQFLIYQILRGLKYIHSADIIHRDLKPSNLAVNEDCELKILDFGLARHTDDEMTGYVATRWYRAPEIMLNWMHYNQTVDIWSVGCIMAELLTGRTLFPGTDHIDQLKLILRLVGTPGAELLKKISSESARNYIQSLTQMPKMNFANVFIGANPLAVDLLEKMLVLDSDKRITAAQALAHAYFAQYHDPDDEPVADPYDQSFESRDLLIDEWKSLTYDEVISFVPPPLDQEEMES
Test: Inhibition of MAPK14 Kinase Activity
Settings: not given

IC50 [nM] | Compound
28 | CCC(C)N(C)c1nc(Nc2cc(C(N)=O)ccc2C)nc(N[C@H]2CCNC2)n1 (stereo not given in full)
250 | Cc1ccc(C(N)=O)cc1Nc1nc(N[C@H]2CCNC2)nc(N(C)C2CCCCC2)n1

Target: PIK3CA (human) (UniProt P42336)
Sequence (P42336 whole entry, looked up): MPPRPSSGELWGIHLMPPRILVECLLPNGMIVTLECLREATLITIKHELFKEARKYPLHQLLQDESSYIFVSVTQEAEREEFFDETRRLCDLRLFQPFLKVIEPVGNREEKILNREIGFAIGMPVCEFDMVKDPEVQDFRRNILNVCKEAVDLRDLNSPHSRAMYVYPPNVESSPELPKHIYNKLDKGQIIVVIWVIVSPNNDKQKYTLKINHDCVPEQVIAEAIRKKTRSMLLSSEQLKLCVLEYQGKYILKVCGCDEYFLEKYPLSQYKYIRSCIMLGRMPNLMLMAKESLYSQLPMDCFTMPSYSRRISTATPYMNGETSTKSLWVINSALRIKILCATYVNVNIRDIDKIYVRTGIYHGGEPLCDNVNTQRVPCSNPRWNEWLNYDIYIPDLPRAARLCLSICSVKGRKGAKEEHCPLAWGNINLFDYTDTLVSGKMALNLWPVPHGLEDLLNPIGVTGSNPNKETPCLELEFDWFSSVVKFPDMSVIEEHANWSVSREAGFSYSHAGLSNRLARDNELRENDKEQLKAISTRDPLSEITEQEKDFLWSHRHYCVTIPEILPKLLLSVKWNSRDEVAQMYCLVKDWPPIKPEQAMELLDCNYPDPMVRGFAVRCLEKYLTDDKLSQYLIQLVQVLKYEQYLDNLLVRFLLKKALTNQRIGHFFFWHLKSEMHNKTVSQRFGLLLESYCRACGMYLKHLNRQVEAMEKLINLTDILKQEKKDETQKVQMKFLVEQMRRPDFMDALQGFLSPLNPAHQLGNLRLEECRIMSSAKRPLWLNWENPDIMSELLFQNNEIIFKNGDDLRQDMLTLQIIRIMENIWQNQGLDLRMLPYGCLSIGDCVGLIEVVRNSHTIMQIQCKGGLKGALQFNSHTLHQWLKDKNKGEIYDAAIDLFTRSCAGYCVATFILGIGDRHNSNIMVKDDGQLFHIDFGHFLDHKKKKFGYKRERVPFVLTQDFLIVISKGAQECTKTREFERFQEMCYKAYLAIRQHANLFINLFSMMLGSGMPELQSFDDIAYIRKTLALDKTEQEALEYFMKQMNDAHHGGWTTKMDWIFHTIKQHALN
Test: Inhibition of PIK3CA Kinase Activity
Settings: not given

IC50 [nM] | Compound
> 10000 | COCCn1c(Cc2nc(N3CCOCC3)cc(=O)[nH]2)nc2ccccc21

Target: MAPK14 (human) (UniProt Q16539)
Test: Inhibition of LPS Induced TNF-alpha Production in THP-1 Cells
Settings: thp1

Compound | IC50 [nM]
Cc1ccc(C(N)=O)cc1Nc1nc(NCCc2ccc(F)cc2)nc(N[C@H]2CCNC2)n1 | > 5000
Cc1ccc(C(N)=O)cc1Nc1nc(N[C@H]2CCNC2)nc(N(C)C2CCCCC2)n1 | 1300

Now from value to compound:

IC50 [nM] | Compound
> 5000 | Cc1ccc(C(N)=O)cc1Nc1nc(NCC(C)C)nc(N[C@H]2CCNC2)n1
325 | CCC(C)N(C)c1nc(Nc2cc(C(N)=O)ccc2C)nc(N[C@H]2CCNC2)n1 (stereo not given in full)
> 250 | COC(=O)c1ccc(C)c(Nc2nc(N[C@H]3CCNC3)nc(N(C)CC(C)(C)C)n2)c1

Target: MAPK14 (human) (UniProt Q16539)
Test: Inhibition of LPS-stimulated TNF-alpha Production in Human Monocytic Cells
Settings: thp.1 monocytic

Compound | IC50 [nM]
COC[C@H](C)Nc1nccc(-c2nn3c(c2-c2ccc(F)cc2)OCC3)n1 | 1700
CC[C@H](C)Nc1nccc(-c2nn3c(c2-c2ccc(F)cc2)OCC3)n1 | 80
CCOCn1nnc(-c2ccncc2)c1-c1ccc(F)cc1 | 490
Fc1ccc(-c2c(-c3ccnc(Oc4ccccc4)n3)nn3c2OCCC3)cc1 | > 10000
C[C@H](Nc1nccc(-c2nn3c(c2-c2ccc(F)cc2)OCC3)n1)c1ccccc1 | > 2000

Target: PIK3CD (Human) (UniProt O00329)
Sequence (O00329 whole entry, looked up): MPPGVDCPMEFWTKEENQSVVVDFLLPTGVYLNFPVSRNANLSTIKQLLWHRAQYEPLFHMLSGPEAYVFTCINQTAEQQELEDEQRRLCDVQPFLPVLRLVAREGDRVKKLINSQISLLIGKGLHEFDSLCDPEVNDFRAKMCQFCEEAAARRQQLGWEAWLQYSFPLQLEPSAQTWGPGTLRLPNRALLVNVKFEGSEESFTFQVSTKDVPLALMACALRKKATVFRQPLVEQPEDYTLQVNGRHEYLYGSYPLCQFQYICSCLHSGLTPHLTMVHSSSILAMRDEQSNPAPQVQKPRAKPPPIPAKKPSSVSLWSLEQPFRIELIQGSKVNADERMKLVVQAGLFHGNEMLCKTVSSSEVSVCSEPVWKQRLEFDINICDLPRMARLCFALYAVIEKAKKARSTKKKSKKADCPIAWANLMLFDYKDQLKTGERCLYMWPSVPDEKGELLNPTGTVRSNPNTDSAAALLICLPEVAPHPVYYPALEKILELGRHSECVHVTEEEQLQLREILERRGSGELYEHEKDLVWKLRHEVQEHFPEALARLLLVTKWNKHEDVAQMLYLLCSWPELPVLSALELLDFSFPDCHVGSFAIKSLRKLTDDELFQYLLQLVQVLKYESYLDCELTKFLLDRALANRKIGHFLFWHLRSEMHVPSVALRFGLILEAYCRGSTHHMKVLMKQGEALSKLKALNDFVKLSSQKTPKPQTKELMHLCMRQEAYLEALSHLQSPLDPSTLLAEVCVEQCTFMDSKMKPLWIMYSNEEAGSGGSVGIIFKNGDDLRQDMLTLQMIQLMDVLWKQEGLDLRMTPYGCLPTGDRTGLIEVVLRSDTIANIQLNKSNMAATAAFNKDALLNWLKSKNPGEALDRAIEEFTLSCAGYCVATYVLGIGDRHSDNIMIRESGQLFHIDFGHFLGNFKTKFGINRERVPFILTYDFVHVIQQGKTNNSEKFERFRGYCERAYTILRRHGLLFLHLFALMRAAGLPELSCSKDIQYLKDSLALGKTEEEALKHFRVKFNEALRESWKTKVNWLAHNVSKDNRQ
Test: Inhibition of PIK3CD Kinase Activity
Settings: not given

Compound | IC50 [nM]
C[C@H](Nc1nc(N)ncc1Cl)c1cc2cccc(Cl)c2nc1-c1ccccn1 | 105

Target: MAPK14 (murine)
Test: Inhibition of MAPK14 Kinase Assay
Settings: not given

Compound | IC50 [nM]
COc1ccc(C(=O)N2C3CCC2CC(Cc2ccccc2NC(=O)Nc2cc(C(C)(C)C)nn2-c2ccc(C)cc2)C3)c(OC)c1 (stereo not given) | 6750
COc1ccc(C(=O)N2C3CCC2CC(Cc2ccc(NC(=O)Nc4cc(C(C)(C)C)nn4-c4ccc(C)cc4)cc2)C3)c(OC)c1 (stereo not given) | 1170

Other lines, results leading:

IC50 [nM] | Compound
216 | COc1ccc(C(=O)N2CCC(Cc3cccc(NC(=O)Nc4cc(C(C)(C)C)nn4-c4ccc(C)cc4)c3)CC2)c(OC)c1
230 | COc1ccc(C(=O)N2CCC(Cc3ccc(NC(=O)Nc4cc(C(C)(C)C)nn4-c4ccc(C)cc4)cc3)CC2)c(OC)c1
500 | COc1ccc(C(=O)N2CCC(Cc3ccccc3NC(=O)Nc3cc(C(C)(C)C)nn3-c3ccc(C)cc3)CC2)c(OC)c1

Target: PIK3CB;PIK3CG;PIK3CD;PIK3CA (human) (UniProt P48736)
Test: Inhibition of PIK3CA/PIK3CB/PIK3CD/PIK3CG Kinase Activity
Settings: not given

IC50 [nM] | Compound
724 | COc1c(Cl)ncnc1NCc1cc2cccc(Cl)c2nc1-c1ccccc1
913 | Nc1ncc(F)c(NCc2cc3cccc(Cl)c3nc2-c2ccccc2Cl)n1
15300 | Cc1cccc2cc(CNc3ccnc(C(N)=O)c3)c(-c3ccccc3Cl)nc12
3230 | Fc1cnc(Cl)nc1NCc1cc2cccc(Cl)c2nc1-c1ccccc1Cl

Compound | IC50 [nM]
C[C@H](Nc1nc(N)ncc1Cl)c1cc2cccc(Cl)c2nc1-c1ccccn1 | 106

Target: PIK3CA (human) (UniProt P42336)
Test: Assessment of PIK3CA Kinase Activity
Settings: not given

IC50 [nM] | Compound
< 100 | CN1CC2CN(c3cnc4ncc(-c5ccc6oc(N)nc6c5)cc4n3)CC2C1 (stereo not given)
16 | Nc1ncc(-c2cnc3ccc(-c4ccc(C(=O)N5CCN(Cc6ccccn6)CC5)cc4)nn23)cc1C(F)(F)F

Target: PIK3CG (human) (UniProt P48736)
Test: Assessment of PIK3CG Kinase Activity
Settings: not given

IC50 [nM] | Compound
> 10000 | COCCn1c(Cc2nc(N3CCOCC3)cc(=O)[nH]2)nc2ccccc21

Target: PIK3CB (Human) (UniProt P42338)
Sequence (P42338 whole entry, looked up): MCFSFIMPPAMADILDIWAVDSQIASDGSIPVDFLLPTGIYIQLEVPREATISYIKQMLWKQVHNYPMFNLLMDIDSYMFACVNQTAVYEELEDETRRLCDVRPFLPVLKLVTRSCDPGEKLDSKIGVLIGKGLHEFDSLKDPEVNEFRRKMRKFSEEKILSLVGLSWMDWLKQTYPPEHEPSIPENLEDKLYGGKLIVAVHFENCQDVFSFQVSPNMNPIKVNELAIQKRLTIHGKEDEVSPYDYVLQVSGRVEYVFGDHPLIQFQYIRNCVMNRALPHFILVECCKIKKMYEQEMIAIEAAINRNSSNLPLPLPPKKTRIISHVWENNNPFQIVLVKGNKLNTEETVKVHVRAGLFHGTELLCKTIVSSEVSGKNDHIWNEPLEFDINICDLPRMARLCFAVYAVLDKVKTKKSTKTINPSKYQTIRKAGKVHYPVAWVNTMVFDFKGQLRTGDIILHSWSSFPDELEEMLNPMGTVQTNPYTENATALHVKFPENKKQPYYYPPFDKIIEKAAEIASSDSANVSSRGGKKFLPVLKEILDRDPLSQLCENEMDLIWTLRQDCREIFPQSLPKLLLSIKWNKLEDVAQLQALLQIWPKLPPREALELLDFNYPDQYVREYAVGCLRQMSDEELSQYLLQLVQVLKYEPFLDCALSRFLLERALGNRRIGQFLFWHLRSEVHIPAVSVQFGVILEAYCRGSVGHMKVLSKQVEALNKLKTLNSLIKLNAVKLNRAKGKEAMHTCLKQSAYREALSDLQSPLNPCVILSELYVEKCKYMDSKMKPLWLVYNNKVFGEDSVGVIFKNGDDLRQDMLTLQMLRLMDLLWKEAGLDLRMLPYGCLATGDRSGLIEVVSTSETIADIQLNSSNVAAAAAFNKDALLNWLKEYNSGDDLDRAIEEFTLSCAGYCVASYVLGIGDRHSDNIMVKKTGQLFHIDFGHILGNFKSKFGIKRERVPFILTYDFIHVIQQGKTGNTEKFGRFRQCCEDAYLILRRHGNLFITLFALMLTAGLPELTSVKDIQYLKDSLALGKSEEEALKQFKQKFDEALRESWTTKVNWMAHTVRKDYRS
Test: Assessment of PIK3CB Kinase Activity
Settings: not given

IC50 [nM] | Compound
13 | Cc1c(Cn2ccn3c(=O)cc(C4C=COCC4)nc23)cccc1C(F)(F)F (stereo not given)
205 | COCCn1c(Cc2nc(N3CCOCC3)cc(=O)[nH]2)nc2ccccc21
100 to 1000 | CN1CC2CN(c3cnc4ncc(-c5ccc6oc(N)nc6c5)cc4n3)CC2C1 (stereo not given)
979 | Nc1ncc(-c2cnc3ccc(-c4ccc(C(=O)N5CCN(Cc6ccccn6)CC5)cc4)nn23)cc1C(F)(F)F

Compound | IC50 [nM]
CC(Nc1ccc(F)cc1)c1cc(C(=O)N(C)C)cc2c(=O)cc(N3CCO[C@@H](C)C3)oc12 (stereo not given in full) | 64

Target: PIK3CD (Human) (UniProt O00329)
Test: Assessment of PIK3CD Kinase Activity
Settings: not given

IC50 [nM] | Compound
40 | Cc1c(Cn2ccn3c(=O)cc(C4C=COCC4)nc23)cccc1C(F)(F)F (stereo not given)
270 | COCCn1c(Cc2nc(N3CCOCC3)cc(=O)[nH]2)nc2ccccc21
100 to 1000 | CN1CC2CN(c3cnc4ncc(-c5ccc6oc(N)nc6c5)cc4n3)CC2C1 (stereo not given)
93 | Nc1ncc(-c2cnc3ccc(-c4ccc(C(=O)N5CCN(Cc6ccccn6)CC5)cc4)nn23)cc1C(F)(F)F

Target: MAPK14 (human) (UniProt Q16539)
Test: Inhibition of Doubly Phosphorylated MAPK14 Kinase Activity (Biochemical Assay)
Settings: not given

IC50 [nM] | Compound
12 | NC(=O)Cc1cccc(-n2nc(-c3ccccc3)cc2NC(=O)Nc2cccc(Cl)c2Cl)c1
58 | NC(=O)Cc1cccc(-n2nc(-c3cccc(Cl)c3)cc2NC(=O)Nc2cccc(Cl)c2Cl)c1

Target: MAPK14 (UniProt Q16539)
Sequence (Q16539 whole entry, looked up): as the sequence (Q16539 whole entry, looked up) above
Test: not given
Settings: not given

Compound | inhibition [µM]
Fc1ccc(-c2ncn(C3CCNCC3)c2-c2ccnc(Oc3ccccc3)c2)cc1 | < 50
Fc1ccc(Oc2nccc(-c3c(-c4ccc(F)cc4)ncn3CCCN3CCOCC3)n2)cc1 | < 50
Fc1ccc(Oc2cc(-c3c(-c4ccc(F)cc4)ncn3C3CCNCC3)ccn2)cc1 | < 50

The next lines start with the values.

inhibition [µM] | Compound
< 50 | Cn1nnnc1Sc1cc(-c2c(-c3ccc(F)cc3)ncn2C2CCNCC2)ccn1
< 50 | COc1ccc(Oc2cc(-c3c(-c4ccc(F)cc4)ncn3C3CCNCC3)ccn2)cc1
< 50 | Fc1ccc(-c2ncn(C3CCNCC3)c2-c2ccnc(Sc3ccccc3)c2)cc1

Target: EGFR (murine) (UniProt P00533)
Test: not given
Settings: nih3t3

IC50 [nM] | Compound
> 100000 | Cc1nc2ccc(NCc3ccc(F)cc3)nc2nc1-c1ccccc1
> 50000 | Oc1ccc(-c2cnc3ccc(NCc4ccccc4)nc3n2)cc1
> 100000 | Fc1ccc(CNc2ccc3nc(-c4ccccc4)c(-c4ccccc4)nc3n2)cc1
> 100000 | COc1ccc2nc(C)c(-c3ccccc3)nc2n1
> 100000 | COc1ccc2nc(-c3ccccc3)c(-c3ccccc3)nc2n1
> 50000 | c1ccc(Nc2ccc3ncc(-c4ccccc4)nc3n2)cc1

Target: EGFR (human) (UniProt P00533)
Test: not given
Settings: hn5

IC50 [nM] | Compound
1600 | CS(=O)(=O)CCNCc1nc(-c2ccc3ncnc(Nc4ccc(OCc5ccccc5)cc4)c3c2)cs1
570 | CS(=O)(=O)CCNCc1nc(-c2ccc3ncnc(Nc4ccc(F)c(Cl)c4)c3c2)cs1
230 | CS(=O)(=O)CCNCc1nc(-c2ccc3ncnc(Nc4ccc(OCc5ccccc5)c(Cl)c4)c3c2)cs1
110 | CS(=O)(=O)CCNCc1nc(-c2ccc3ncnc(Nc4ccc5c(cnn5Cc5ccccc5)c4)c3c2)cs1

Target: EGFR (human) (UniProt P00533)
Test: not given
Settings: not given

Compound | IC50 [nM]
CC.COc1cc2ncnc(Nc3ccc(F)c(Cl)c3)c2cc1OC1CCN(S(=O)(=O)N2CCOCC2)CC1 | 0.1
COc1cc2ncnc(Nc3ccc(F)c(Cl)c3)c2cc1O[C@H]1CC[C@H](NS(=O)(=O)N2CCOCC2)CC1 | 0.4

The remaining lines, values ahead:

IC50 [nM] | Compound
1 | COc1cc2ncnc(Nc3ccc(F)c(Cl)c3)c2cc1O[C@H]1CC[C@H](NS(=O)(=O)N(C)C)CC1
0.3 | COc1cc2ncnc(Nc3ccc(F)c(Cl)c3)c2cc1O[C@H]1CC[C@H](NC(=O)N2CCOCC2)CC1
0.13 | COc1cc2ncnc(Nc3ccc(F)c(Cl)c3)c2cc1O[C@H]1CCOC1

Target: EGFR (UniProt P00533)
Test: not given
Settings: not given

Compound | IC50 [nM]
Cc1cn2ncnc(Nc3ccc4c(cnn4Cc4cccc(F)c4)c3)c2c1CN1CCCNCC1 | 130
O=C1CNCCN(Cc2ccn3ncnc(Nc4ccc5c(cnn5Cc5cccc(F)c5)c4)c23)C1 | 78
Cc1ccn2ncnc(Nc3ccc4c(cnn4Cc4cccc(F)c4)c3)c12 | 81

Continued, values first:

IC50 [nM] | Compound
> 1000 | COC(=O)C1CCN(Cc2ccn3ncnc(Nc4ccc5c(cnn5Cc5cccc(F)c5)c4)c23)CC1
190 | COc1cn2ncnc(Nc3ccc4c(cnn4Cc4cccc(F)c4)c3)c2c1CN1CCCNCC1

Target: EGFR (human) (UniProt P00533)
Test: not given
Settings: not given
Remark: another data set of the same source

IC50 [nM] | Compound
23.8 | C=C=CCOc1cc2c(Nc3ccc(F)c(Cl)c3)ncnc2cc1OC
28.5 | C=C=CCCCOc1cc2c(Nc3cccc(Cl)c3)ncnc2cc1OC
16.9 | C=C=CCOc1cc2c(Nc3cccc(Cl)c3)ncnc2cc1OC
65.5 | C=C=CCCCCOc1cc2c(Nc3ccc(F)c(Cl)c3)ncnc2cc1OC

Target: ROCK2 (human) (UniProt O75116)
Sequence (O75116 whole entry, looked up): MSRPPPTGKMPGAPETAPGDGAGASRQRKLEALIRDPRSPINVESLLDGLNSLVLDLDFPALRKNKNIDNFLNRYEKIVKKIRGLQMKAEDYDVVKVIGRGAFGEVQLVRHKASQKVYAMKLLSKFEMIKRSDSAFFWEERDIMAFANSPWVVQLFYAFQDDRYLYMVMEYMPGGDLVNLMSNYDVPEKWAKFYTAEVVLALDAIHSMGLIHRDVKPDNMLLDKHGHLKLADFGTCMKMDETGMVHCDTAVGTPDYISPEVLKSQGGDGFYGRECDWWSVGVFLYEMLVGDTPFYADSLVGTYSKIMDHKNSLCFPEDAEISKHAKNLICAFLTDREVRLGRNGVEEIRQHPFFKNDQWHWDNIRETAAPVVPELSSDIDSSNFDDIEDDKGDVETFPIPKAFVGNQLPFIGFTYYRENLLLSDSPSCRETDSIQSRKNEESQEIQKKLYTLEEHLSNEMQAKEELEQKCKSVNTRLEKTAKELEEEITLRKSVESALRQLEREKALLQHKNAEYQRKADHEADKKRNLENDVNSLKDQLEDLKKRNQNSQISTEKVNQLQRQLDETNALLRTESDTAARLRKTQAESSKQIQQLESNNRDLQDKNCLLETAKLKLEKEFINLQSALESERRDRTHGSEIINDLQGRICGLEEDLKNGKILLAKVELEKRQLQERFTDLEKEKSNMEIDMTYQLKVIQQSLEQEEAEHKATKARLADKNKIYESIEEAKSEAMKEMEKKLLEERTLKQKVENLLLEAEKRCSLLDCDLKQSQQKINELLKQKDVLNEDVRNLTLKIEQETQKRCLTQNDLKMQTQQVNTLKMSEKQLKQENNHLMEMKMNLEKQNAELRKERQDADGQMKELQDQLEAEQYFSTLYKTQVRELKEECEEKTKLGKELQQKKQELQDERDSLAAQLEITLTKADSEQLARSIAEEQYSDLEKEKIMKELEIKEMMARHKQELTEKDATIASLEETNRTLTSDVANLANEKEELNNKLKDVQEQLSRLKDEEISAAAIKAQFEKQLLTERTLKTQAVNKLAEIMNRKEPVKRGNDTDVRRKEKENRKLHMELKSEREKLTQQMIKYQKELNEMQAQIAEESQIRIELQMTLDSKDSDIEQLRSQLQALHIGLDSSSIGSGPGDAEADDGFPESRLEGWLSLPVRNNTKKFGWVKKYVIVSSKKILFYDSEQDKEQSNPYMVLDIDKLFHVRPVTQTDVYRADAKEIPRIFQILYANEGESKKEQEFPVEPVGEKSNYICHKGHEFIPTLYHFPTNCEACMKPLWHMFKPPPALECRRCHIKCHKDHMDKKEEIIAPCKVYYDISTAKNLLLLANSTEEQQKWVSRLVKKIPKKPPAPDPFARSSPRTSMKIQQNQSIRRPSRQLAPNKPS
Test: not given
Settings: not given

Compound | IC50 [nM]
COc1ccc2c(c1)CN[C@@H](C(=O)Nc1ccc(-c3cn[nH]c3)cc1OCCN(C)C)C2 | 261
CCN1Cc2ccc(OC)cc2C[C@@H]1C(=O)Nc1ccc(-c2cn[nH]c2)cc1OCCN(C)C | 9

Other lines, results leading:

IC50 [nM] | Compound
334 | COc1cccc2c1CNC(C(=O)Nc1ccc(-c3cn[nH]c3)cc1OCCN(C)C)C2 (stereo not given)
2 | NC(Cc1cccc(Cl)c1)C(=O)Nc1ccc(-c2cn[nH]c2)cc1 (stereo not given)
850 | CCOc1ccc2c(c1)CC(C(=O)Nc1ccc(-c3cn[nH]c3)cc1OCCN(C)C)NC2 (stereo not given)
134 | COc1ccc2c(c1)C[C@H](C(=O)Nc1ccc(-c3cn[nH]c3)cc1)NC2
